The test has as its target T1, full-length SARM1 (FL-SARM1) (Homo sapiens, UniProt Q6SZW1).
T1 sequence (Q6SZW1 28-724): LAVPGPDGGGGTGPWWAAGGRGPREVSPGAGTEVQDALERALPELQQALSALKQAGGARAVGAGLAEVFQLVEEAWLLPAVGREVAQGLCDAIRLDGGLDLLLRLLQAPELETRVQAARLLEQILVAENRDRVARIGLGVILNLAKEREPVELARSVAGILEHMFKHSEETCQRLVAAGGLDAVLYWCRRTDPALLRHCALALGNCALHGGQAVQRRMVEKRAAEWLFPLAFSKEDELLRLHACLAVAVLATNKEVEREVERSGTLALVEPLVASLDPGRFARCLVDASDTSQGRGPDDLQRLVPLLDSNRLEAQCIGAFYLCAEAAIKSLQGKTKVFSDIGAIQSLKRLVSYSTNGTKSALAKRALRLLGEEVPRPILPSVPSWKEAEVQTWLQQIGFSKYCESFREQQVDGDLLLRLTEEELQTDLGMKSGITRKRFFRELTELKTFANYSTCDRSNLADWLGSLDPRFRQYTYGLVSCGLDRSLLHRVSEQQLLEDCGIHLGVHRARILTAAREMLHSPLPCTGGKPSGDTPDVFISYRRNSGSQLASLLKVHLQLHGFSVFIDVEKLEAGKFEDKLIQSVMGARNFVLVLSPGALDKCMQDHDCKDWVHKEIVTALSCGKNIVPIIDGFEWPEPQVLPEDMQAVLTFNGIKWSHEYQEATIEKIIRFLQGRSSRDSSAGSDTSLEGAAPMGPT
Description: FL-SARM1 cellular lysate assay (NAD/NADH-Glo detection of remaining NAD+, NMN-activated).

Setting [1] is: Activity (μM) (IC50), 11 point curve.
[2] abbreviates: read-out: Activity (IC50 class), 11 point curve.
[3] abbreviates: Activity (IC50 class), 11 point curve.

Read-outs that look alike come from different tables or passages of the source. Where only a bound is given, the exact number is not on record here.

A word on the IC50: it is the concentration needed to halve the response being measured. For the molecule `Cc1ccc(NC(=O)N2C3CCCC2C3)cc1-c1nccc(C#N)n1` [Example 67, N-(3-(4-cyanopyrimidin-2-yl)-4-methyl-phenyl)-6-azabicyclo[3.1.1]heptane-6-carboxamide], the IC50 runs as follows: under setting [1], 0.6 µM; under setting [2], 0.0001 to 1 µM.
For `Cc1ccc(NC(=O)C2CCC2(F)F)cc1-c1ccccn1` (racemic) [Example 111, 2,2-difluoro-N-(4-methyl-3-pyridin-2-ylphenyl)cyclobutane-1-carboxamide], the IC50 runs as follows: under setting [3], 1 to 10 µM; under setting [1], 2.8 µM.
Turning to `Cc1ccc(NC(=O)[C@@H]2C[C@H]3CC[C@@H]2N3c2ccccn2)cc1-c1ncc(F)cn1` (racemic) [Example 275, cis-N-(3-(5-fluoropyrimidin-2-yl)-4-methylphenyl)-7-(pyridin-2-yl)-7-azabicyclo[2.2.1]heptane-2-carboxamide], the half-maximal inhibitory concentration (IC50) is, setting by setting: under setting [3], 1 to 10 µM; under setting [1], 4.9 µM.
As to `CC[C@H]1C[C@@H]1C(=O)Nc1ccc(C)c(-c2ccccn2)c1` (racemic) [Example 108, trans-2-ethyl-N-(4-methyl-3-pyridin-2-ylphenyl)cyclopropane-1-carboxamide], the IC50 reads like this: under setting [3], 1 to 10 µM; under setting [1], 1.1 µM.
Turning to `Cc1ccc(NC(=O)C2CCC2C)cc1-c1ccccn1` (centres unmarked) [Example 112, 2-methyl-N-(4-methyl-3-pyridin-2-ylphenyl)cyclobutane-1-carboxamide], the half-maximal inhibitory concentration (IC50) is 1 to 10 µM under setting [3] and 1.7 µM under setting [1].
In the case of `CO[C@@H]1CCCN(C(=O)Nc2ccc(C(F)(F)F)c(-c3ncc(F)cn3)c2)CC1` [Example 306, (R)-N-(3-(5-fluoropyrimidin-2-yl)-4-(trifluoromethyl)phenyl)-4-methoxyazepane-1-carboxamide], the IC50 reads like this: under setting [3], 1 to 10 µM; under setting [1], 9.6 µM.
In the case of `Cc1ccc(NC(=O)N2C[C@@H]3C[C@H]2CN3c2ccccc2)cc1-c1ccccn1` [Example 13, (1S,4S)-N-(4-methyl-3-(pyridin-2-yl)phenyl)-5-phenyl-2,5-diazabicyclo[2.2.1]heptane-2-carboxamide], the IC50 under setting [1] was 0.7 µM and the concentration for half-maximal inhibition (IC50) under setting [2] fell in the range of 0.0001 to 1 µM.
Regarding `C[C@@H]1CC2C[C@H](C1)N2C(=O)Nc1ccc(Cl)c(-c2cccnn2)c1` [Example 64, cis-N-(4-chloro-3-pyridazin-3-ylphenyl)-3-methyl-6-azabicyclo[3.1.1]heptane-6-carboxamide], the half-maximal inhibitory concentration (IC50) by setting is: under setting [1], 0.1 µM; under setting [2], 0.0001 to 1 µM.
`COC(C)[C@@]12CC(C[C@@H](C)C1)N2C(=O)Nc1ccc(C(F)(F)F)c(-c2nccnn2)c1` (single isomer, unassigned) [Example 212, cis-N-(3-(1,2,4-triazin-3-yl)-4-(trifluoromethyl)phenyl)-1-(1-methoxyethyl)-3-methyl-6-azabicyclo[3.1.1]heptane-6-carboxamide]: the IC50 was 1 to 10 µM under setting [3] and 9.6 µM under setting [1].
With `C[C@@H]1C[C@@H]2C[C@H](C1)N2C(=O)Nc1cc(-c2cccnn2)c(C(F)(F)F)cc1F` [Example 245, cis-N-[2-fluoro-5-pyridazin-3-yl-4-(trifluoromethyl)phenyl]-3-methyl-6-azabicyclo[3.1.1]heptane-6-carboxamide], the 50% inhibitory concentration (IC50) was 0.2 µM under setting [1] and 0.0001 to 1 µM under setting [2].
For the molecule `CCOC(C)[C@@]12CC(C[C@@H](C)C1)N2C(=O)Nc1ccc(C)c(-c2ncc(F)cn2)c1` (single isomer, unassigned) [Example 186], the IC50 reads like this: under setting [1], 0.2 µM; under setting [2], 0.0001 to 1 µM.
With `Cc1ccc(NC(=O)N2C3CC2CN(CC(F)(F)F)C3)cc1-c1ccccn1` [Example 4, N-(4-methyl-3-(pyridin-2-yl)phenyl)-3-(2,2,2-trifluoroethyl)-3,6-diazabicyclo[3.1.1]heptane-6-carboxamide], the IC50 was 0.4 µM under setting [1] and 0.0001 to 1 µM under setting [2].
As to `COc1ccc(-c2cc(NC(=O)N3C4CCCC3C4)ccc2C)nn1` [Example 60, N-(3-(6-methoxypyridazin-3-yl)-4-methyl-phenyl)-6-azabicyclo[3.1.1]heptane-6-carboxamide], the concentration for half-maximal inhibition (IC50) runs as follows: under setting [3], 1 to 10 µM; under setting [1], 1.1 µM.
With `Cc1ccc(NC(=O)[C@H]2CC[C@@H](C)N2c2ncccn2)cc1-c1ncc(F)cn1` [Example 287, (2R,5R)-N-[3-(5-fluoropyrimidin-2-yl)-4-methylphenyl]-5-methyl-1-pyrimidin-2-ylpyrrolidine-2-carboxamide], the IC50 under setting [3] was 1 to 10 µM and half-maximal inhibition under setting [1] (IC50) was put at 2.1 µM.
On to `COc1nccnc1-c1cc(NC(=O)N2[C@@H]3C[C@@H](C)C[C@H]2C3)ccc1C` [Example 219, cis-N-[3-(3-methoxypyrazin-2-yl)-4-methylphenyl]-3-methyl-6-azabicyclo[3.1.1]heptane-6-carboxamide], for which the half-inhibitory concentration (IC50) was 1 to 10 µM under setting [3] and 1 µM under setting [1].
Turning to `C[C@@H]1CC2C[C@H](C1)N2C(=O)Nc1ccc(CF)c(-c2ncc(F)cn2)c1` [Example 179, cis-N-(4-(fluoromethyl)-3-(5-fluoropyrimidin-2-yl)phenyl)-3-methyl-6-azabicyclo[3.1.1]heptane-6-carboxamide], the midpoint of inhibition under setting [1], the IC50, lay at 0.03 µM and the half-maximal inhibitory concentration (IC50) under setting [2] lay in the range of 0.0001 to 1 µM.
For the molecule `Cc1ccc(NC(=O)N2C3CC(C)CC2(C(C)O)C3)cc1-c1ncc(F)cn1` (single isomer, unassigned) [Example 193, cis-N-(3-(5-fluoropyrimidin-2-yl)-4-methylphenyl)-1-(1-hydroxyethyl)-3-methyl-6-azabicyclo[3.1.1]heptane-6-carboxamide], the 50% inhibitory concentration (IC50) is 0.1 µM under setting [1] and 0.0001 to 1 µM under setting [2].
Turning to `CCc1ccc(NC(=O)N2C3CCCC2C3)cc1-c1ccccn1` [Example 30, N-(4-ethyl-3-(pyridin-2-yl)phenyl)-6-azabicyclo[3.1.1]heptane-6-carboxamide], the IC50 by setting is: under setting [1], 0.2 µM; under setting [2], 0.0001 to 1 µM.
`Cc1ccc(NC(=O)C2C3CCC2CC3)cc1-c1ncccn1` (centres unmarked) [Example 106, N-(4-methyl-3-pyrimidin-2-ylphenyl)bicyclo[2.2.1]heptane-7-carboxamide] displayed an IC50 under setting [3] of 1 to 10 µM and an IC50 under setting [1] of 1 µM.
On to `Cc1ccc(NC(=O)[C@@H]2CC2(F)F)cc1-c1cccc(C#N)n1` [Example 159, (1S)-N-[3-(6-cyanopyridin-2-yl)-4-methylphenyl]-2,2-difluorocyclopropane-1-carboxamide], for which the IC50 was 1 to 10 µM under setting [3] and 9.8 µM under setting [1].
Turning to `Cc1ccc(NC(=O)N2C3CC2CN(C(C)C(F)(F)F)C3)cc1-c1ccccn1` (centres unmarked) [Example 2, N-(4-Methyl-3-(pyridin-2-yl)phenyl)-3-(1,1,1-trifluoropropan-2-yl)-3,6-diazabicyclo[3.1.1]heptane-6-carboxamide], the half-maximal inhibitory concentration (IC50) was 0.7 µM under setting [1] and 0.0001 to 1 µM under setting [2].
As to `Cc1ccc(NC(=O)N2CC3CC3(C(F)(F)F)C2)cc1-c1ccccn1` (centres unmarked) [Example 97, N-(4-methyl-3-pyridin-2-ylphenyl)-1-(trifluoromethyl)-3-azabicyclo[3.1.0]hexane-3-carboxamide], the 50% inhibitory concentration (IC50) is over 10 µM under setting [3] and 11 µM under setting [1].
In the case of `Cc1ccc(NC(=O)N2CCCC2c2ccn(C)n2)cc1-c1ccccn1` (racemic) [Example 88, 2-(1-methylpyrazol-3-yl)-N-(4-methyl-3-pyridin-2-ylphenyl)pyrrolidine-1-carboxamide], the IC50 is, setting by setting: under setting [3], over 10 µM; under setting [1], 11 µM.
As for `Cc1ccc(NC(=O)[C@H]2CC[C@@H](C)CN2c2ncccn2)cc1-c1ncccn1` (single isomer, unassigned) [Example 205, cis-5-methyl-N-(4-methyl-3-(pyrimidin-2-yl)phenyl)-1-(pyrimidin-2-yl)piperidine-2-carboxamide], the IC50 is 0.3 µM under setting [1] and 0.0001 to 1 µM under setting [2].
As for `CCc1ccnc(-c2cc(NC(=O)N3C4C[C@@H](C)C[C@H]3C4)ccc2C)n1` [Example 237, cis-N-[3-(4-ethylpyrimidin-2-yl)-4-methylphenyl]-3-methyl-6-azabicyclo[3.1.1]heptane-6-carboxamide], the IC50 by setting is: under setting [3], 1 to 10 µM; under setting [1], 1.1 µM.
With `Cc1ccc(NC(=O)[C@H]2C[C@@H](OC(F)(F)F)C2)cc1-c1ccccn1` [Example 136, cis-N-(4-methyl-3-pyridin-2-ylphenyl)-3-(trifluoromethoxy)cyclobutane-1-carboxamide], the concentration for half-maximal inhibition (IC50) under setting [3] is 1 to 10 µM and the half-maximal inhibitory concentration (IC50) under setting [1] turned out to be 6.4 µM.
As for `Cc1cc(F)c(NC(=O)N2C3C[C@@H](C)C[C@H]2C3)cc1-c1ncc(F)cn1` [Example 254, cis-N-[2-fluoro-5-(5-fluoropyrimidin-2-yl)-4-methylphenyl]-3-methyl-6-azabicyclo[3.1.1]heptane-6-carboxamide], the IC50 runs as follows: under setting [1], 0.02 µM; under setting [2], 0.0001 to 1 µM.
For `CC[C@H]1C[C@H]1C(=O)Nc1ccc(C)c(-c2ccccn2)c1` (single isomer, unassigned) [Example 109, cis-2-ethyl-N-(4-methyl-3-pyridin-2-ylphenyl)cyclopropane-1-carboxamide] the same measures were 0.3 µM and 0.0001 to 1 µM.

The values above are taken from patent US20250171462A1 (NICO Therapeutics, Inc., priority 2022, published 2025).
